The text below walks through data of patent US12173330B2, “Method for producing hydroxy-L-pipecolic acid” (API CORPORATION, priority 2015, dated 2024).

Like-named read-outs stand apart in the source and are kept apart here.

Test [1] deals with Gibberella zeae PH-1 L-pipecolic acid trans-4-hydroxylase GzPH, SEQ ID NO: 16 (Fusarium graminearum, UniProt I1RHG1).
Test [2] relates to Kordia jejudonensis amino acid hydroxylase KjPH, SEQ ID NO: 18. Format: biochemical. The note with it: for Km / Vmax: 20 mmol/L 2-oxoglutaric acid, 30° C.; for kcat: calculated from Vmax and molecular weight.
Test [3] deals with T1, Catenulispora acidiphila NBRC102108 L-proline cis-4-hydroxylase CaPH, SEQ ID NO: 6 (Catenulispora acidiphila, UniProt C7Q927).
T1 sequence (C7Q927 1-290): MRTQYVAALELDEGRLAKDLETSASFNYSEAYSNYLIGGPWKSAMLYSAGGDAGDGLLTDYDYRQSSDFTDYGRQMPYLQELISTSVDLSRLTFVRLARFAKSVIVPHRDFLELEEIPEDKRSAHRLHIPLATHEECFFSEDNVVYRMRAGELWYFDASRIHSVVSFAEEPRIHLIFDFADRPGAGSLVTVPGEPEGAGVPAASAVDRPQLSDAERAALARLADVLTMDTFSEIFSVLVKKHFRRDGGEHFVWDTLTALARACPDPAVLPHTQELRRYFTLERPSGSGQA
The class given is biochemical. The settings on record: substrate: L-proline; calculated from Vmax and molecular weight.

Test [4] addresses Sinorhizobium meliloti 1021 L-proline cis-4-hydroxylase SmPH, SEQ ID NO: 10 (Sinorhizobium meliloti, UniProt Q92LF6). Format: biochemical. The settings on record: for kcat: calculated from Vmax and molecular weight.
Test [5] addresses T2, Xenorhabdus doucetiae FRM16 L-proline cis-4-hydroxylase XdPH, SEQ ID NO: 8 (Xenorhabdus doucetiae, UniProt A0A068QPC1).
T2 sequence (A0A068QPC1 1-294): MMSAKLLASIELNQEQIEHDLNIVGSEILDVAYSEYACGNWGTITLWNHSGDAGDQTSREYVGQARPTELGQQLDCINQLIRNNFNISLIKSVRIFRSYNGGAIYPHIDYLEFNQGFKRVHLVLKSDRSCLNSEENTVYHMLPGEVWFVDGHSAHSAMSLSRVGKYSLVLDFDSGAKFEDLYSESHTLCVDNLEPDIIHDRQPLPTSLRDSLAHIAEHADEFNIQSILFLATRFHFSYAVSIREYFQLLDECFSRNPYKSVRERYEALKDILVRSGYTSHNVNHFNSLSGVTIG
Format: biochemical. The note with it: for kcat: calculated from Vmax and molecular weight.

Test [6] deals with Segniliparus rugosus ATCC BAA-974 L-pipecolic acid cis-5-hydroxylase SruPH, SEQ ID NO: 4 (Segniliparus rugosus, UniProt E5XT07). The settings on record: for Vmax: 20 mmol/L 2-oxoglutaric acid, 30° C.; for kcat: calculated from Vmax and molecular weight.
For test [7], the system named is Micromonospora chokoriensis amino acid hydroxylase McPH (L-pipecolic acid 5-hydroxylase), wild type, SEQ ID NO: 2. The class given is biochemical.
The target in test [8] is Colletotrichum gloeosporioides Nara qc5 L-pipecolic acid trans-4-hydroxylase CgPH, SEQ ID NO: 12 (Colletotrichum fructicola, UniProt L2G7W2).
Where [9] appears, read: substrate: L-proline, 20 mmol/L 2-oxoglutaric acid, 30° C.
Where [10] appears, read: substrate: L-pipecolic acid, 20 mmol/L 2-oxoglutaric acid, 30° C.
Setting [11] is: substrate: L-pipecolic acid, calculated from Vmax and molecular weight.

As a reminder, the Km is the substrate concentration at which the rate is half of its maximum. Turning to `O=C(O)[C@@H]1CCCN1` [L-proline], the “catalytic reaction efficiency for L-proline relative to that for L-pipecolic acid” value is 0 in test [1] (kcat/Km ratio); 115% in test [2] (kcat/Km ratio); 114% in test [4] (kcat/Km ratio); 119% in test [5] (kcat/Km ratio); 754% in test [6] (kcat/Km ratio); 0 in test [7] (kcat/Km ratio). Besides, the “catalytic reaction efficiency for L-proline relative to that for L-pipecolic acid” value in test [8] (kcat/Km ratio) is given as 0. Besides, the Km in test [2] (substrate: L-proline) is 480 µM. Also, the Vmax in test [2] (substrate: L-proline) was 0.34 U/mg-protein; in test [4] (setting [9]) it was 0.06 U/mg-protein; in test [5] (setting [9]), 1.44 U/mg-protein; in test [6] (substrate: L-proline) it was 0.13 U/mg-protein. For the same molecule, the kcat in test [2] (substrate: L-proline) is 0.18; in test [3], 0.01; in test [4] (substrate: L-proline), 0.03; in test [5] (substrate: L-proline) it was 0.80; in test [6] (substrate: L-proline), 0.07.
With `O=C(O)[C@@H]1CCCCN1` [L-pipecolic acid], the Vmax came out at 114.94 U/mg-protein in test [1] (setting [10]); 0.30 U/mg-protein in test [2] (substrate: L-pipecolic acid); 0.05 U/mg-protein in test [6] (substrate: L-pipecolic acid); 0.06 U/mg-protein in test [7] (setting [10]); 70.42 U/mg-protein in test [8] (setting [10]). The kcat in test [1] (setting [11]) is on record as 72.48; in test [2] (substrate: L-pipecolic acid), 0.16; in test [4] (substrate: L-pipecolic acid), 0.02; in test [5] (substrate: L-pipecolic acid), 0.64; in test [6] (substrate: L-pipecolic acid) it was 0.03; in test [7] (setting [11]), 0.03. Besides, the kcat in test [8] (setting [11]) is on record as 43.80. For the same molecule, the Km in test [2] (substrate: L-pipecolic acid) was 490 µM; in test [7] (setting [10]), 240 µM.
